Common to all, as to format: cell-based
Data set [1] concerns MDA-MB-231 cells. As to the kind of experiment: MTT metabolization, inhibition of MDA-MB-231 cell proliferation. How it is done:
(§1) These triple negative breast cancer cell lines were obtained from the American Type Culture Collection Cell Biology Collection (ATCC) (Manassas, Va.). The medium was changed every 2 days.
(§2) Cell proliferation and growth experiments were carried out using 3-(4,5-dimethylthiazol-2-yl)-2,5-diphenyltetrazolium bromide (MTT) uptake assays, where MTT is reduced to purple formazan by the mitochondria of living cells. Increase in cell number is detected by augmented MTT metabolization, and decrease in cell number is reflected by a decrease. […] The cells were treated with the drug at different concentrations to plot the dose-response curves in all cancer cell lines using in the study. […] After treatment, each well was replaced with 250 μL of fresh medium containing MTT ([…]) and incubated for 1 hour. The medium was then removed and 500 μL of dimethyl sulfoxide was added to each well. The plate was agitated in the dark for 5 minutes to dissolve the MTT-formazan crystals. The absorbance of the samples was recorded at 562 nm in a multi-well plate reader (BMG labtech). Results were plotted as the mean values of quadruplicates from a representative experiment that was repeated at least two independent times.
(§3) Combination index values less than 1 indicate synergism, values equal to 1 indicate an additive effect, whereas values greater than 1 indicate antagonism. Combination index values from three independent experiments were generated.

The subject of data set [2] is BT-549 cells. The data set can be described thus: MTT metabolization, inhibition of BT-549 cell proliferation. The protocol:
as §1, §2, §3

The test system of data set [3] is HS578T cells. As to the kind of experiment: MTT metabolization, inhibition of HS578T cell proliferation. How it is done: as §1, §2, §3

Structures are written as SMILES.

A word on the inhibition: it is the percentage by which the read-out fell short of the control. Turning to `CC(=O)O[C@@]12CO[C@@H]1C[C@H](O)[C@@]1(C)C(=O)[C@H](O)C3=C(C)[C@@H](OC(=O)[C@H](O)[C@@H](NC(=O)OC(C)(C)C)c4ccccc4)C[C@@](O)([C@@H](OC(=O)c4ccccc4)[C@H]21)C3(C)C` [Docetaxel, docetaxel, reference compound], the viability at 0.0004 µM in data set [1] (Homo sapiens, MDA-MB-231, Docetaxel 0.4 nM alone, read-out: Percentage inhibition Docetaxel mean) is 59.3%. The viability at 0.0008 µM in data set [1] (Homo sapiens, MDA-MB-231, Docetaxel 0.8 nM alone, read-out: Percentage inhibition Docetaxel mean) was determined as 33.8%. Besides, the viability at 0.0012 µM in data set [1] (Homo sapiens, MDA-MB-231, Docetaxel 1.2 nM alone, read-out: Percentage inhibition Docetaxel mean) came out at 25.3%. For the same compound, the viability at 0.0016 µM in data set [1] (Homo sapiens, MDA-MB-231, Docetaxel 1.6 nM alone, read-out: Percentage inhibition Docetaxel mean) was determined as 25.3%. The inhibition at 0.0004 µM in data set [2] (Homo sapiens, BT-549, Docetaxel 0.4 nM alone, read-out: Percentage inhibition Docetaxel mean) turned out to be 82%. The inhibition at 0.0008 µM in data set [2] (Homo sapiens, BT-549, Docetaxel 0.8 nM alone, read-out: Percentage inhibition Docetaxel mean) amounted to 36.1%. Besides, the inhibition at 0.0012 µM in data set [2] (Homo sapiens, BT-549, Docetaxel 1.2 nM alone, read-out: Percentage inhibition Docetaxel mean) came to 36.5%. Also, the inhibition at 0.0016 µM in data set [2] (Homo sapiens, BT-549, Docetaxel 1.6 nM alone, read-out: Percentage inhibition Docetaxel mean) was determined as 36.1%. The percent inhibition of cell proliferation at 0.0004 µM in data set [3] (Homo sapiens, Hs-578T, Docetaxel 0.4 nM alone, read-out: Percentage inhibition Docetaxel mean) was 73%. The percent inhibition of cell proliferation at 0.0008 µM in data set [3] (Homo sapiens, Hs-578T, Docetaxel 0.8 nM alone, read-out: Percentage inhibition Docetaxel mean) came to 49.6%. Moreover, the percent inhibition of cell proliferation at 0.0012 µM in data set [3] (Homo sapiens, Hs-578T, Docetaxel 1.2 nM alone, read-out: Percentage inhibition Docetaxel mean) worked out at 45.8%. In addition, the percent inhibition of cell proliferation at 0.0016 µM in data set [3] (Homo sapiens, Hs-578T, Docetaxel 1.6 nM alone, read-out: Percentage inhibition Docetaxel mean) is 47.9%.
With `N.N.O=C([O-])C1(C(=O)[O-])CCC1.[Pt+2]` [Carboplatin, carboplatin, reference compound], the “Percentage inhibition Carboplatin mean” value worked out at 74.70% in data set [1] (Carboplatin 80 nM alone); 62.30% in data set [1] (Carboplatin 120 nM alone); 61.11% in data set [1] (Carboplatin 160 nM alone); 58.21% in data set [1] (Carboplatin 200 nM alone); 37.09% in data set [2] (Carboplatin 80 nM alone); 21.43% in data set [2] (Carboplatin 120 nM alone). In addition, the “Percentage inhibition Carboplatin mean” value in data set [2] (Carboplatin 160 nM alone) is listed as 19.39%; in data set [2] (Carboplatin 200 nM alone) it was 15.69%; in data set [3] (Carboplatin 80 nM alone) it was 70.90%; in data set [3] (Carboplatin 120 nM alone) it was 60.26%; in data set [3] (Carboplatin 160 nM alone) it was 50.49%; in data set [3] (Carboplatin 200 nM alone), 24.33%.

Source of the values: patent US9808469B2, “Antitumor activity of multi-kinase inhibitors in triple negative breast cancer” (ENTRECHEM, S.L, priority 2014, dated 2017).
